# Measurements published in ChEMBL document CHEMBL1649156, “Antianaerobic activity of sulopenem compared to six other agents” (2009).
# Columns and labels:
# Format in all cases: functional
# Lactobacillus = assay: Antimicrobial activity in Lactobacillus by CLSI agar dilution method
# [1] = test system: Parabacteroides distasonis; assay: Antimicrobial activity in Bacteroides distasonis by CLSI agar dilution method
# Hoylesella loescheii = assay: Antimicrobial activity in Prevotella loescheii by CLSI agar dilution method
# Prevotella denticola = assay: Antimicrobial activity in Prevotella denticola by CLSI agar dilution method
# [2] = test system: Porphyromonas asaccharolytica; assay: Antimicrobial activity in Porphyromonas asaccharolytica by CLSI agar dilution method
# Prevotella intermedia = assay: Antimicrobial activity in Prevotella intermedia by CLSI agar dilution method
# Fusobacterium nucleatum = assay: Antimicrobial activity in Fusobacterium nucleatum by CLSI agar dilution method
# Clostridioides difficile = assay: Antimicrobial activity in Clostridium difficile by CLSI agar dilution method
# Bacteroides uniformis = assay: Antimicrobial activity in Bacteroides uniformis by CLSI agar dilution method
# Anaerococcus tetradius = assay: Antimicrobial activity in Anaerococcus tetradius by CLSI agar dilution method
# Actinomyces = assay: Antimicrobial activity in Actinomyces by CLSI agar dilution method
# Prevotella nigrescens = assay: Antimicrobial activity in Prevotella nigrescens by CLSI agar dilution method
# [Clostridium] innocuum = Antimicrobial activity in Clostridium innocuum by CLSI agar dilution method
# Bifidobacterium = assay: Antimicrobial activity in Bifidobacterium by CLSI agar dilution method
# Bacteroides fragilis [3] = assay: Antimicrobial activity in Bacteroides fragilis ATCC 25285 by CLSI agar dilution method
# Cutibacterium acnes = assay: Antimicrobial activity in Propionibacterium acnes by CLSI agar dilution method
# Parvimonas micra = assay: Antimicrobial activity in Micromonas micros by CLSI agar dilution method
# Prevotella sp. = assay: Antimicrobial activity in Prevotella sp.by CLSI agar dilution method
# Tissierella praeacuta = assay: Antimicrobial activity in Clostridium hastiforme by CLSI agar dilution method
# Prevotella salivae = assay: Antimicrobial activity in Prevotella salivae by CLSI agar dilution method; conditions: Segatella salivae
# Clostridium cadaveris = assay: Antimicrobial activity in Clostridium cadaveris by CLSI agar dilution method
# [4] = test system: Bacteroides thetaiotaomicron; assay: Antimicrobial activity in Bacteroides thetaiotaomicron by CLSI agar dilution method
# Eggerthella lenta [5] = assay: Antimicrobial activity in Eggerthella lenta ATCC 43055 by CLSI agar dilution method
# [6] = test system: Fusobacterium necrophorum; assay: Antimicrobial activity in Fusobacterium necrophorum by CLSI agar dilution method
# Porphyromonas gingivalis = assay: Antimicrobial activity in Porphyromonas gingivalis by CLSI agar dilution method
# Bacteroides stercoris = assay: Antimicrobial activity in Bacteroides stercoris by CLSI agar dilution method
# Thomasclavelia ramosa = assay: Antimicrobial activity in Clostridium ramosum by CLSI agar dilution method
# Bacteroides ovatus = assay: Antimicrobial activity in Bacteroides ovatus by CLSI agar dilution method
# Prevotella veroralis = assay: Antimicrobial activity in Prevotella veroralis by CLSI agar dilution method
# Eggerthella lenta [7] = assay: Antimicrobial activity in Eggerthella lenta by CLSI agar dilution method
# [8] = test system: Prevotella melaninogenica; assay: Antimicrobial activity in Prevotella melaninogenica by CLSI agar dilution method
# Clostridium tertium = assay: Antimicrobial activity in Clostridium tertium by CLSI agar dilution method
# Clostridium sp. = assay: Antimicrobial activity in Clostridium sp. by CLSI agar dilution method
# Fusobacterium mortiferum = assay: Antimicrobial activity in Fusobacterium mortiferum by CLSI agar dilution method
# Fusobacterium varium = assay: Antimicrobial activity in Fusobacterium varium by CLSI agar dilution method
# [9] = test system: Peptoniphilus asaccharolyticus; assay: Antimicrobial activity in Peptoniphilus asaccharolyticus by CLSI agar dilution method
# [10] = test system: Enterocloster clostridioformis; assay: Antimicrobial activity in Clostridium clostridioforme by CLSI agar dilution method
# Anaerococcus prevotii = assay: Antimicrobial activity in Anaerococcus prevotii by CLSI agar dilution method
# [11] = test system: Paraclostridium bifermentans; assay: Antimicrobial activity in Clostridium bifermentans by CLSI agar dilution method
# [12] = test system: Paeniclostridium sordellii; assay: Antimicrobial activity in Clostridium sordellii by CLSI agar dilution method; conditions: Paraclostridium sordellii
# Prevotella baroniae = assay: Antimicrobial activity in Prevotella baroniae by CLSI agar dilution method; conditions: Segatella baroniae
# Prevotella bivia = assay: Antimicrobial activity in Prevotella bivia by CLSI agar dilution method
# [13] = test system: Bacteroides thetaiotaomicron; assay: Antimicrobial activity in Bacteroides thetaiotaomicron ATCC 29741 by CLSI agar dilution method
# Clostridium butyricum = assay: Antimicrobial activity in Clostridium butyricum by CLSI agar dilution method
# Clostridium perfringens = assay: Antimicrobial activity in Clostridium perfringens by CLSI agar dilution method
# Hoylesella oralis = assay: Antimicrobial activity in Prevotella oralis group by CLSI agar dilution method
# Prevotella buccae = assay: Antimicrobial activity in Prevotella buccae by CLSI agar dilution method; conditions: Segatella buccae
# Phocaeicola vulgatus = assay: Antimicrobial activity in Bacteroides vulgatus by CLSI agar dilution method
# Prevotella bergensis = assay: Antimicrobial activity in Prevotella bergensis by CLSI agar dilution method; conditions: Hallella bergensis
# Finegoldia magna = assay: Antimicrobial activity in Finegoldia magna by CLSI agar dilution method
# Prevotella corporis = assay: Antimicrobial activity in Prevotella corporis by CLSI agar dilution method
# Prevotella disiens = assay: Antimicrobial activity in Prevotella disiens by CLSI agar dilution method
# Bacteroides fragilis [14] = assay: Antimicrobial activity in Bacteroides fragilis by CLSI agar dilution method
# [15] = test system: Peptostreptococcus anaerobius; assay: Antimicrobial activity in Peptostreptococcus anaerobius by CLSI agar dilution method
compound,measurement,setting,value
C[C@@H](O)[C@H]1C(=O)N2C(C(=O)O)=C(S[C@H]3CC[S@@+]([O-])C3)S[C@H]12 [SULOPENEM],MIC50,Lactobacillus,> 8 µg/mL
same,MIC90,Lactobacillus,> 8 µg/mL
same,MIC50,[1],0.5 µg/mL
same,MIC90,[1],1 µg/mL
same,MIC,Hoylesella loescheii,0.125 µg/mL
same,MIC50,Prevotella denticola,0.125 µg/mL
same,MIC90,Prevotella denticola,0.25 µg/mL
same,MIC,[2],≤ 0.016 µg/mL
same,MIC50,Prevotella intermedia,0.06 µg/mL
same,MIC90,Prevotella intermedia,0.125 µg/mL
same,MIC,Fusobacterium nucleatum,≤ 0.016 µg/mL
same,MIC50,Fusobacterium nucleatum,≤ 0.016 µg/mL
same,MIC90,Fusobacterium nucleatum,0.03 µg/mL
same,MIC,Clostridioides difficile,2 µg/mL
same,MIC50,Clostridioides difficile,2 µg/mL
same,MIC90,Clostridioides difficile,4 µg/mL
same,MIC,Bacteroides uniformis,0.25 µg/mL
same,MIC50,Bacteroides uniformis,0.25 µg/mL
same,MIC50,Anaerococcus tetradius,0.125 µg/mL
same,MIC90,Anaerococcus tetradius,0.25 µg/mL
same,MIC,Actinomyces,0.25 µg/mL
same,MIC50,Actinomyces,0.5 µg/mL
same,MIC50,Prevotella nigrescens,0.06 µg/mL
same,MIC90,Prevotella nigrescens,0.125 µg/mL
same,MIC,[Clostridium] innocuum,0.25 µg/mL
same,MIC50,Bifidobacterium,0.25 µg/mL
same,MIC90,Bifidobacterium,1 µg/mL
same,MIC,Bacteroides fragilis [3],0.06 µg/mL
same,MIC,Cutibacterium acnes,0.125 µg/mL
same,MIC50,Cutibacterium acnes,0.125 µg/mL
same,MIC90,Cutibacterium acnes,0.25 µg/mL
same,MIC,Parvimonas micra,0.125 µg/mL
same,MIC50,Parvimonas micra,0.125 µg/mL
same,MIC90,Parvimonas micra,0.125 µg/mL
same,MIC,Prevotella sp.,0.03 µg/mL
same,MIC,Tissierella praeacuta,2 µg/mL
same,MIC,Prevotella salivae,0.06 µg/mL
same,MIC,Clostridium cadaveris,0.25 µg/mL
same,MIC,[4],0.25 µg/mL
same,MIC50,[4],0.25 µg/mL
same,MIC90,[4],0.5 µg/mL
same,MIC,Eggerthella lenta [5],0.06 µg/mL
same,MIC,[6],≤ 0.016 µg/mL
same,MIC50,[6],≤ 0.016 µg/mL
same,MIC,Porphyromonas gingivalis,0.03 µg/mL
same,MIC,Bacteroides stercoris,0.25 µg/mL
same,MIC50,Bacteroides stercoris,0.25 µg/mL
same,MIC,Thomasclavelia ramosa,0.5 µg/mL
same,MIC,Bacteroides ovatus,0.25 µg/mL
same,MIC50,Bacteroides ovatus,0.25 µg/mL
same,MIC90,Bacteroides ovatus,0.5 µg/mL
same,MIC,Prevotella veroralis,0.06 µg/mL
same,MIC,Eggerthella lenta [7],1 µg/mL
same,MIC50,Eggerthella lenta [7],1 µg/mL
same,MIC90,Eggerthella lenta [7],1 µg/mL
same,MIC50,[8],0.125 µg/mL
same,MIC90,[8],0.25 µg/mL
same,MIC,Clostridium tertium,1 µg/mL
same,MIC50,Clostridium tertium,1 µg/mL
same,MIC50,Clostridium sp.,2 µg/mL
same,MIC90,Clostridium sp.,4 µg/mL
same,MIC50,Fusobacterium mortiferum,0.5 µg/mL
same,MIC90,Fusobacterium mortiferum,0.5 µg/mL
same,MIC50,Fusobacterium varium,0.5 µg/mL
same,MIC90,Fusobacterium varium,0.5 µg/mL
same,MIC,[9],0.03 µg/mL
same,MIC50,[9],0.06 µg/mL
same,MIC,[10],1 µg/mL
same,MIC,Anaerococcus prevotii,0.03 µg/mL
same,MIC,[11],0.5 µg/mL
same,MIC,[12],0.125 µg/mL
same,MIC,Prevotella baroniae,0.06 µg/mL
same,MIC50,Prevotella bivia,0.125 µg/mL
same,MIC90,Prevotella bivia,0.25 µg/mL
same,MIC,[13],0.06 µg/mL
same,MIC,Clostridium butyricum,0.5 µg/mL
same,MIC50,Clostridium perfringens,0.125 µg/mL
same,MIC90,Clostridium perfringens,0.25 µg/mL
same,MIC,Hoylesella oralis,≤ 0.016 µg/mL
same,MIC50,Prevotella buccae,0.125 µg/mL
same,MIC90,Prevotella buccae,0.25 µg/mL
same,MIC50,Phocaeicola vulgatus,0.5 µg/mL
same,MIC90,Phocaeicola vulgatus,1 µg/mL
same,MIC,Prevotella bergensis,0.125 µg/mL
same,MIC50,Finegoldia magna,0.25 µg/mL
same,MIC90,Finegoldia magna,0.25 µg/mL
same,MIC,Prevotella corporis,0.03 µg/mL
same,MIC50,Prevotella corporis,0.06 µg/mL
same,MIC,Prevotella disiens,0.03 µg/mL
same,MIC50,Prevotella disiens,0.125 µg/mL
same,MIC50,Bacteroides fragilis [14],0.125 µg/mL
same,MIC90,Bacteroides fragilis [14],0.5 µg/mL
same,MIC50,[15],0.5 µg/mL
same,MIC90,[15],2 µg/mL
